Reference: patent publication US5185331A, “Triazolobenzodiazepines” (Merck & Co., Inc., priority 1991, dated 1993)
Where two headings read alike, the source gives them in different places.

What was measured:
[1] = rat, brain synaptosomal fraction; cited from earlier work
[2] = system: CCK-A receptors; conditions: pancreas, gallbladder, colon; cited from earlier work
[3] = system: CCK-B receptors; conditions: brain; cited from earlier work
[4] = target: T1, CCK receptor (pancreas) (Rattus norvegicus, UniProt P30551); experiment: 125I-CCK receptor binding (pancreas); set-up: species or system rat (male Sprague-Dawley); conditions: for effect on the 125I-CCK receptor binding assay: added as protease inhibitor
T1 construct: The whole pancreas was dissected free of fat tissue and was homogenized; from tissue; host or cells: rat pancreas (male Sprague-Dawley), washed membrane pellet of homogenate
T1 sequence (P30551 1-444): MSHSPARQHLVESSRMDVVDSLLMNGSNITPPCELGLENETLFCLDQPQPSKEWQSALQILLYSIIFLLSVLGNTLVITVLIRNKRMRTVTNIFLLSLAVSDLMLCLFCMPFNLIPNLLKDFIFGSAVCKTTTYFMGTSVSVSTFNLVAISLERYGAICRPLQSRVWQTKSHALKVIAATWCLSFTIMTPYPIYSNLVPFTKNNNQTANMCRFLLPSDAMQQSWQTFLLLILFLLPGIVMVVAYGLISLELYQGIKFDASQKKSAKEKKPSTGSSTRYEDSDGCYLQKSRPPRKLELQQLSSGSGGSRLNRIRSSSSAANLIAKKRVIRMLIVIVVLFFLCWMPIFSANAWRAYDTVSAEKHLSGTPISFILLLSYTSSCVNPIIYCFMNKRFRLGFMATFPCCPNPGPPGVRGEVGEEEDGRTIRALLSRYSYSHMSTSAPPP
Description: 1. CCK receptor binding (pancreas)
CCK-33 was radiolabeled with ^125 I-Bolton Hunter reagent (2000 Ci/mmole) as described by Sankara et al. (J. Biol. Chem. 254: 9349-9351, 1979). Receptor binding was performed according to Innis and Snyder (Proc. Natl. Acad. Sci. 77: 6917-6921, 1980) with the minor modification of adding the additional protease inhibitors, phenylmethane sulfonyl fluoride and o-phenanthroline. The latter two compounds have no effect on the ^125 I-CCK receptor binding assay.
Male Sprague-Dawley rats (200-350 g) were sacrificed by decapitation. The whole pancreas was dissected free of fat tissue and was homogenized in 20 volumes of ice-cold 50 mM, Tris HCl (pH 7.7 at 25° C.) with a Brinkmann Polytron PT 10. The homogenates were centrifuged at 48,000 g for 10 min. Pellets were resuspended in Tris Buffer, centrifuged as above and resuspended in 200 volumes of binding assay buffer (50 mM Tris HCl, pH 7.7 at 25° C., 5 mM dithiothrietol, 0.1 mM bacitracin, 1.2 mM phenylmethane sulfonyl fluoride and 0.5 mM o-phenanthroline). […] All assays were run in duplicate or triplicate. The reaction mixtures were incubated at 37° C. for 30 minutes and centrifuged in a Beckman Microfuge (4 minutes) immediately after adding 1 ml of ice-cold incubation buffer. The supernatant was aspirated and discarded, pellets were counted with a Beckman gamma 5000. For Scatchard analysis (Ann. N.Y. Acad. Sci. 51: 660, 1949), ^125 I-CCK-33 was progressively diluted with increasing concentrations of CCK-33.

[5] = target: T2, CCK receptor (brain) (Cavia porcellus, UniProt H0VZC5); experiment: 125I-CCK receptor binding (brain); set-up: species or system guinea pig (male Hartley); conditions: guinea pig cerebral cortex, 125I-CCK-33, 25° C., 2 hours
T2 construct: Cerebral cortex was dissected and used as a receptor source; from tissue; host or cells: guinea pig cerebral cortex (male Hartley), washed membrane pellet of homogenate
T2 sequence (H0VZC5 entry or part of it): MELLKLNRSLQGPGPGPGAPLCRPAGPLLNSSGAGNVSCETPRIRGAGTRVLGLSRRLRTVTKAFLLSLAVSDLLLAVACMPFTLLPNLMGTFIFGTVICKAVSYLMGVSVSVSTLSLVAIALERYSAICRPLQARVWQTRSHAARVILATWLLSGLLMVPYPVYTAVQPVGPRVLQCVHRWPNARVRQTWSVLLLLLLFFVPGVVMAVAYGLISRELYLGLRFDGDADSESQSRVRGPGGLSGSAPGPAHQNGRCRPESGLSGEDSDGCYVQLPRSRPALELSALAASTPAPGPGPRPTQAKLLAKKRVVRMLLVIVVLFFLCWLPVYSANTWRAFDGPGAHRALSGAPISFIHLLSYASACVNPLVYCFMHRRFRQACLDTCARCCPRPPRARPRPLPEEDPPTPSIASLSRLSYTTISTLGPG
Description: 2. CCK Receptor Binding (Brain)
CCK-33 was radiolabeled and the binding was performed according to the description for the pancreas method with modification according to Saito et al. (J. Neurochem. 37, 483-490, 1981).
Male Hartley guinea pigs (300-500 g) were sacrificed by decapitation and the brains were removed and placed in ice-cold 50 mM, Tris HCl plus 7.58 g/l Trizma-7.4 (pH 7.4 at 25° C.). Cerebral cortex was dissected and used as a receptor source. Each gram of fresh guinea pig brain tissue was homogenized in 10 ml of Tris Trizma buffer with a Brinkman polytron PT-10. The homogenates were centrifuged at 42,000 g for 15 min. […] All assays were run in duplicate or triplicate. The reaction mixtures were incubated at 25° C. for 2 hours and centrifuged in a Beckman Microfuge (4 minutes) immediately after adding 1 ml of ice-cold incubation buffer. The supernatant was aspirated and discarded, pellets were counted with a Beckman gamma 5000.

| Compound | affinity for CCK-A receptors [2] | affinity for CCK-B receptors [3] | other results |
| --- | --- | --- | --- |
| CSCC[C@H](NC(=O)[C@H](Cc1ccc(OS(=O)(=O)O)cc1)NC(=O)[C@@H](N)CC(=O)O)C(=O)NCC(=O)N[C@@H](Cc1c[nH]c2ccccc12)C(=O)N[C@@H](CCSC)C(=O)N[C@@H](CC(=O)O)C(=O)N[C@@H](Cc1ccccc1)C(N)=O [CCK-8s, H-Asp-Tyr(SO3 H)-Met-Gly-Trp-Met-Asp-Phe-NH2] | high affinity | high affinity | half-life [1]: less than 1 hour |
| O=C(Nc1ccc(Cl)cc1)NC1N=C(c2ccccc2)c2ccccc2-n2cnnc21 (centres unmarked) [Compound 11, N-(4-Chlorophenyl)-N'-(6-phenyl-4H-[1,2,4]triazolo-[4,3-a][1,4]benzodiazepin-4-yl)urea] |  |  | IC50 [4]: 120 nM; IC50 [5]: 480 nM |
| Cc1nnc2n1-c1ccccc1C(c1ccccc1)=NC2NC(=O)Nc1ccc(Cl)cc1 (centres unmarked) [Compound 12, N-(4-Chlorophenyl)-N'-(1-methyl-6-phenyl-4H-[1,2,4]triazolo[4,3-a][1,4]benzodiazepin-4-yl)urea] |  |  | IC50 ([4]; rat pancreas membranes, 125I-CCK-33, 37° C., 30 minutes): 82 nM; IC50 [5]: 80 nM |
| c1cnc2c(c1)ccc1cccnc12 [o-phenanthroline] |  |  | effect on the 125I-CCK receptor binding assay [4]: no effect |
| CSCC[C@H](NC(=O)[C@H](Cc1c[nH]c2ccccc12)NC(=O)CCNC(=O)OC(C)(C)C)C(=O)N[C@@H](CC(=O)O)C(=O)N[C@@H](Cc1ccccc1)C(N)=O [pentagastrin] |  | high affinity |  |
| O=S(=O)(F)Cc1ccccc1 [phenylmethane sulfonyl fluoride] |  |  | effect on the 125I-CCK receptor binding assay [4]: no effect |
| CCK-4 | lower affinity | high affinity |  |
| CCK-8d: the corresponding desulphated fragment | lower affinity |  |  |
| gastrin | lower affinity |  |  |
